Where two headings read alike, the source gives them in different places.
How the values were obtained:
[1] = system: HXK2 hxk1Δ glk1Δ, hxk2Δ hxk1Δ glk1Δ and hxk2Δ hxk1Δ GLK1 cells; experiment: Sugar uptake in yeast strains with and without hexokinase activity; type: cell-based, S. cerevisiae; conditions: for inhibition at 50 µM: Saccharomyces cerevisiae
Experimental: (§1) Zero-trans uptake of radioactively labeled [U-^14C]glucose, [U-^14C]fructose or [U-^14C]galactose by S. cerevisiae cells was determined in accordance with previous studies^44,66. Cells were grown on different carbon sources depending on the experiment. For measuring glucose uptake activity in the tps1Δ and tps1Δ hxtA strains (FIG. 1b,c), cells were grown on YP medium containing 3% glycerol (measurement of 10s). Typically, for compound characterization and kinetic studies in wild type and tps1Δ strains, cells were (pre)grown on Complete Synthetic medium supplemented with 2% galactose (measurement of 10s). In the experiments on the influence of hexokinase activity on the sugar uptake rate, the measurement duration was shortened to 5s and cells were always grown on YP medium containing 3% glycerol and 2% ethanol. After harvesting, cells were washed twice with ice-cold 25 mM MES-buffer pH 6, and resuspended in their respective medium without sugar to a final concentration of 45 mg (wet weight)/mL. The amount of added tracer was estimated to give a response close to at least 1000 counts per min in order to adequately counter background noise. Cells were first preincubated for 10 min at 30° C. with the compound to acclimate the cells to the temperature and to allow adequate interaction with the compound prior to uptake. Next, hexose sugar was mixed with the cell suspension, which was then incubated for 5 or 10 s, depending on the experiment, after which the cells were rapidly filtered over a glass microfiber filter (Whatman GF/C) and washed three times with ice-cold dH2O. The loaded filter was transferred to a scintillation vial containing 3 mL liquid scintillation cocktail (Ultima-Flo M, Perkin Elmer) and counted using the Hidex 300 SL. Three blank measurements per strain were typically included to account for background signal, for which the cells were first quenched before adding the radioactive label.

[2] = target: T1, human GLUT1^V69M (Homo sapiens, UniProt P11166, V69M); experiment: Glucose uptake by GLUT1^V69M expressed in hxt^0 gal2Δ (RE700A) yeast; type: cell-based; conditions: 2.5 mM glucose
T1 construct: HA (C); expressed in transfected cells; host or cells: S. cerevisiae RE700A (hxt0 gal2Δ), plasmid pFL38Kan-GLUT1^V69M (TEF1 promoter, low-copy)
T1 sequence (P11166 1-492 V69M): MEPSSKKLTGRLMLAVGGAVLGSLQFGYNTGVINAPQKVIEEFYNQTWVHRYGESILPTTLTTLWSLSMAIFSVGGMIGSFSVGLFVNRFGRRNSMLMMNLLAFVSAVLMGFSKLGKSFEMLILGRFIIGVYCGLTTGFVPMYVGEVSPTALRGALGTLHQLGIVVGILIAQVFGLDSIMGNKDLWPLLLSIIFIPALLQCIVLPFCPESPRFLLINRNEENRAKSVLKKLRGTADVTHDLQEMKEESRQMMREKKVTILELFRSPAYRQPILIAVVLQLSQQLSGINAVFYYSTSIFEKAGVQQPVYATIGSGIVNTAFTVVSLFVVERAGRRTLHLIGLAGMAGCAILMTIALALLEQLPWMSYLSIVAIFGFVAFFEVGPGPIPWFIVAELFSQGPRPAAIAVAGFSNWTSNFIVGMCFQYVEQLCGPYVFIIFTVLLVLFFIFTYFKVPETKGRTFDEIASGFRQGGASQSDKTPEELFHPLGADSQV
Excerpt: (§2) To assess whether WBC-A could inhibit glucose transport activity of the GLUT carriers, we expressed human GLUT1^V69M and GLUT4^V85M in a hxt^0 gal2Δ (RE700A) and hxt^0 erg4Δ (EBY.VW4000) strain, respectively. These strains are both deficient in glucose uptake due to absence of all active glucose transporters. For functional GLUT expression in yeast, specific mutations had to be introduced in both sequences, whereas for GLUT4, an additional ERG4 gene deletion was required^64,65,66.
(§3) Zero-trans uptake of radioactively labeled [U-^14C]glucose, [U-^14C]fructose or [U-^14C]galactose by S. cerevisiae cells was determined in accordance with previous studies^44,66. Cells were grown on different carbon sources depending on the experiment. For measuring glucose uptake activity in the tps1Δ and tps1Δ hxtA strains (FIG. 1b,c), cells were grown on YP medium containing 3% glycerol (measurement of 10s). Typically, for compound characterization and kinetic studies in wild type and tps1Δ strains, cells were (pre)grown on Complete Synthetic medium supplemented with 2% galactose (measurement of 10s). […] The loaded filter was transferred to a scintillation vial containing 3 mL liquid scintillation cocktail (Ultima-Flo M, Perkin Elmer) and counted using the Hidex 300 SL. […]

[3] = target: T2, human GLUT4^V85M (Homo sapiens, UniProt P14672, V85M); experiment: Glucose uptake by GLUT4^V85M expressed in hxt^0 erg4Δ (EBY.VW4000) yeast; type: cell-based; conditions: 2.5 mM glucose
T2 construct: HA (C); expressed in transfected cells; host or cells: S. cerevisiae EBY.VW4000 (hxt0 erg4Δ), plasmid pFL38Kan-GLUT4^V85M (TEF1 promoter, low-copy)
T2 sequence (P14672 1-509 V85M): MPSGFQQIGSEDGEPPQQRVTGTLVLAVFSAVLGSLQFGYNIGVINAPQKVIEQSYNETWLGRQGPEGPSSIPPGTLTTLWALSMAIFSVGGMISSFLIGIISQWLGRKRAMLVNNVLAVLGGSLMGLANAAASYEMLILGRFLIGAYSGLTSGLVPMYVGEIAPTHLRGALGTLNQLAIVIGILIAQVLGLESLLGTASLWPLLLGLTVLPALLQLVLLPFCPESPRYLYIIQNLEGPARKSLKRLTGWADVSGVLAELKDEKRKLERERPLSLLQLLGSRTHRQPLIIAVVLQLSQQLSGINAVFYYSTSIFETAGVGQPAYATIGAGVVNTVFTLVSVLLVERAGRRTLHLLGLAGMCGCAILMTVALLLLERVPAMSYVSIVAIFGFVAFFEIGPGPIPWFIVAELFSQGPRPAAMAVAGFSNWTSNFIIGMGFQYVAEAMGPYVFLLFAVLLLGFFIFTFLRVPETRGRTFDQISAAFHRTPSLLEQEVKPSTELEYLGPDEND
Excerpt: as §2, §3

[4] = system: wild type cells; experiment: Zero-trans glucose uptake in wild type yeast cells; type: cell-based, S. cerevisiae; conditions: for Ki: Dixon plot analysis
Experimental: as §1

[5] = system: wild type yeast cells; experiment: General toxicity: growth of wild type yeast cells; type: cell-based, S. cerevisiae; conditions: 100 μM
Experimental: Maximal growth rates were determined after 2 days of growth in Complete Synthetic liquid medium.
Growth curves were made by measuring OD595 in a 96-well plate using the Multiskan™ FC Microplate Photometer (Thermo Fisher Scientific). Typically, for tps1Δ rescue experiments (FIG. 2b-e; FIG. 4a), cells were (pre)grown in Complete Synthetic medium containing 2% galactose.
Compounds were always added 10 min prior to glucose addition to ensure maximal interaction between the cells and compounds. Cells originating from the preculture were harvested, washed in medium without sugar, after which they were resuspended to an OD of 0.1 in 200 μL of the appropriate medium. At least three technical replicates were included per condition. OD595 was measured at 30° C. every 30 min with a 10-min shaking interval.

## Cc1nc(Sc2nnc3n2CCCCC3)c2c(-c3cccs3)csc2n1 [WBC-A]
[1]; 50 μM WBC-A
  Fructose uptake at tracer concentration, hxk2Δ hxk1Δ GLK1 cells: little inhibition of fructose uptake
  Glucose uptake at tracer concentration, hxk2Δ hxk1Δ GLK1 cells: strong inhibition of glucose uptake
[1]; 1 mM glucose
  Inhibition of glucose uptake rate, hxk1Δ hxk2Δ glk1Δ strain: little further inhibition
[1]; 1 mM glucose, HXK2 hxk1Δ glk1Δ
  Inhibition of glucose uptake rate, strain expressing active Hxk2: strong reduction in glucose uptake rate
[1]; read-out: Inhibition of fructose transport, strain expressing only GLK1
  inhibition at 50 µM: ~30%
[1]; read-out: Inhibition of fructose transport, strain only expressing HXK2
  inhibition at 50 µM: > 75%
[2]; 25 μM, hxt^0 gal2Δ strain
  Inhibition of glucose uptake by GLUT1^V69M at 25 μM: inhibited
[2]; hxt^0 gal2Δ (RE700A)
  IC50: 24 µM
[3]
  IC50: 20.9 µM
[4]
  Ki: 9.04 µM
[4]; printed K′, read-out: K′i, glucose uptake, wild type cells
  Ki: 36.6 µM
[4]; Lineweaver-Burk plot analysis
  Type of inhibition of glucose uptake, wild type cells: mixed type
[5]
  Growth of wild type yeast cells on glucose (2%) and on 3% glycerol+2% ethanol: did not cause any growth inhibition at all

From US20240252508A1, “Novel glucose uptake inhibitors for use in the treatment of cancer” (NOVELYEAST BV, priority 2021, published 2024)
